In patent publication US11352320B2 (Merck Sharp & Dohme Corp., priority 2018, dated 2022):
pIC50: −log10 of the molar value. Counter-ions that a name gives are not always drawn.

Columns and labels:
IDO1 [1] = target: T1, IDO1 (Homo sapiens, UniProt P14902); experiment: IDO1 Human Whole Blood Assay; type: cell-based; settings: LPS and IFNγ 100 ng/mL, 18 h, kynurenine by LC/MS/MS
Method: IDO1 Human Whole Blood Assay
Compounds to be tested were serially diluted in ten 3-fold steps in DMSO starting from 10 mM. 3 μL of compound dilutions or DMSO alone were then dispensed from the dilution plate into a polypropylene 96-well assay plate containing 97 μL of RPMI medium using an Echo 555 acoustic liquid handler (Labcyte). LPS and IFNγ was prepared in RPMI medium to a 10× of final conc. (1000 ng/mL), final concentration is 100 ng/mL.
Two hundred forty μL of blood was transferred to each of the wells of a v-bottom 96 well plate. Thirty μL of compound was transferred from intermediate dilution plate, and incubated for 15 min. Thirty μL from stimulants was then transferred to blood and mixed thoroughly. Plate was covered with breathable membrane and incubated at 37° C. for overnight (18 h).
On day 2 isotope labeled standard of kynurenine and tryptophan was made in water at 10× concentration and 30 μL was added to the blood at 3 μM final concentration. The assay plates were centrifuged at 300×G for 10 min with no brake to separate plasma from red blood cells. Sixty μL of plasma samples was removed without disturbing red blood cells. Plasma was diluted with RPMI in 1:1 ratio and proteins were precipitated out with two volume of acetonitrile. The plates were centrifuged at 4000×G for 60 min. Twenty μL of supernatant was carefully transferred to a 384 well plate containing 40 μL of 0.1% formic acid in water and analyzed by LC/MS/MS.
LC/MS/MS analyses were performed using Thermo Fisher's LX4-TSQ Quantum Ultra system. This system consists of four Agilent binary high-performance liquid chromatography (HPLC) pumps and a TSQ Quantum Ultra triple quadruple MS/MS instrument. For each sample, 5 μL were injected onto an Atlantis T3 column (2.1 mm×150 mm, 3 μm particle size) from Waters. The mobile phase gradient pumped at 0.8 mL/min was used to elute the analytes from the column at 25° C. […] Compounds were titrated and IC50's were calculated by 4 parameter sigmoidal curve fitting formula. […]

IDO1 [2] = target: T1, IDO1; experiment: IDO1 Cellular Assay in Hela Cells Stimulated with IFNγ; type: cell-based; parameters: endogenous in cells; host or cells: HeLa cells stimulated with IFNγ; settings: IFNγ 100 ng/mL, 300 uM L-tryptophan, about 48 hours, fluorescence readout, read-out: IDO1 HELA Cell Assay, IC50
Method: Biological Assays IDO1 Cellular Assay in Hela Cells Stimulated with IFNγ
Hela cells were cultured in complete Hela culture medium (90% EMEM, 10% heat-inactivated fetal bovine serum) and expanded to about 1×10^9 cells. The cells were then collected and frozen down at 1×10^7 cells/vial in 1 mL frozen medium (90% complete Hela culture medium, 10% DMSO)
Compounds to be tested were serially diluted in ten 3-fold steps in DMSO starting from 10 mM DMSO stocks in Echo low volume plate(s). Compound dilutions or DMSO alone were then dispensed from the dilution plate(s) into Greiner black 384-well assay plate(s) (catalog #781086, 50 nL/well) using an Echo 550 acoustic liquid handler (Labcyte).
Frozen Hela cells were thawed and transferred into Hela assay medium (99% complete Hela culture medium, 1% Pen/Strep) with 20 mL medium/vial of cells. The cells were spun down at 250 g in a table top centrifuge for 5 min and suspended in same volume of Hela assay medium. The cells were then counted and adjusted to a density of 2×10^5 cells/ml in Hela assay medium. Sterile L-tryptophan were added to the cells with final concentration of 300 uM L-tryptophan. A small aliquot (2 mL/plate) of Hela cells were set aside and were not treated with IFNγ, to serve as the Max-E control. The rest of Hela cells were added with sterile IFNγ (Cat #285-IF, R & D systems) with a final concentration of 100 ng/mL.
Hela cells with and without IFNγ were dispensed to the respective wells of 384-well assay plates containing the compounds. The plates were incubated for about 48 hours at a 37° C., 5% CO2 incubator. Afterwards, 12 μL of 0.5 M methyl isonipecotate in dimethyl sulfoxide were added into each well and the plates were sealed and incubated at 37° C. without CO2 overnight. The plates were centrifuged for 1 min at 200×g. The resulting fluorescence was measured in a Spectramax plate reader (Molecular Devices) with a 400 nm excitation filter and a 510 nm emission filter.
The fluorescence intensity of each well was corrected for the background observed in wells with non-IFNγ-treated cells and was expressed as a fraction of the intensity observed in wells of IFNγ-treated cells and DMSO only. Potencies were calculated by linear least squares fit to the four parameter logistic IC50 equation.
Compounds disclosed herein generally have IC50 of about 1 nM to about 1,000 nM, or more specifically, about 2 nM to about 800 nM, or more specifically, about 5 nM to about 600 nM, or still more specifically, about 10 nM to about 500 nM. Such a result is indicative of the intrinsic activity of the compounds in use as an inhibitor of an IDO enzyme.

T1 sequence (P14902 whole entry): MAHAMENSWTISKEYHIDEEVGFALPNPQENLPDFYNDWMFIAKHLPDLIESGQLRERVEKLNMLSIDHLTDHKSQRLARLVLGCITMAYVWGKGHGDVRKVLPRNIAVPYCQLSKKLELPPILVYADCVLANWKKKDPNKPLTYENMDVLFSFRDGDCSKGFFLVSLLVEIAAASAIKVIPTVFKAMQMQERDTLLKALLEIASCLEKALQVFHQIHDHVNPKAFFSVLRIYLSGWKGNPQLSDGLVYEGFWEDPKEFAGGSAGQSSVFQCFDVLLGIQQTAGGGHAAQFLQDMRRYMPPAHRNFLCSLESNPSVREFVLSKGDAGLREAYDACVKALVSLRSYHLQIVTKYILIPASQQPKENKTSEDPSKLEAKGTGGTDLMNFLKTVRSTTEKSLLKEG

pIC50 (IDO1 [1])	pIC50 (IDO1 [2])	Structure (SMILES)
6.27	8.27	CC(C(=O)Nc1ccc(F)cc1)C12CC(Nc3ncnc4ccccc34)(C1)C2 (single isomer, unassigned) [Example 5, N-(4-fluorophenyl)-2-(3-(quinazolin-4-ylamino)bicyclo[1.1.1]pentan-1-yl)propanamide]
6.42	8.49	CC(C(=O)Nc1ccc(F)cc1)C12CC(Nc3ncnc4ccc(F)cc34)(C1)C2 (single isomer, unassigned) [Example 11, N-(4-fluorophenyl)-2-(3-((6-fluoroquinazolin-4-yl)amino)bicyclo[1.1.1]pentan-1-yl)propanamide]
6.20	8.25	C[C@H](C(=O)Nc1ccc(F)cc1)C12CC(N(C)Cc3cccc(Cl)c3)(C1)C2 [Example 29, (S)-2-(3-((3-chlorobenzyl)(methyl)amino)bicyclo[1.1.1]pentan-1-yl)-N-(4-fluorophenyl)propanamide, TFA]
–	8.05	C[C@H](C(=O)Nc1ccc(F)cc1)C12CC(N(C)Cc3ccc(Cl)c(Cl)c3)(C1)C2 [Example 33, (S)-2-(3-((3,4-dichlorobenzyl)(methyl)amino)bicyclo[1.1.1]pentan-1-yl)-N-(4-fluorophenyl)propanamide, TFA]
